Data taken from patent publication US9511058B2, “Methods for using carboxamide, sulfonamide and amine compounds” (Rigel Pharmaceuticals, Inc., priority 2010, dated 2016).

Biological target: AMPK
Test: AMPK activation, enzyme-linked immunosorbent assay
Assay type: biochemical
Details: compounds of Table 2 (Table 7)

O=C(NC1CCN(C(=O)c2cccnc2)CC1)c1ccc2[nH]c3c(c2c1)CN(c1ccc(F)cc1)CC3 [2-40, 2-(4-fluorophenyl)-N-(1-nicotinoylpiperidin-4-yl)-2,3,4,5-tetrahydro-1H-pyrido [4,3-b]indole-8-carboxamide]
EC50: > 100 µM

O=C(NC1CCN(C(=O)c2ccc(C(F)(F)F)cc2)CC1)c1ccc2[nH]c3c(c2c1)CN(c1ccc(F)cc1)CC3 [2-41, 2-(4-fluorophenyl)-N-(1-(4-(trifluoromethyl)benzoyl)piperidin-4-yl)-2,3,4,5-tetrahydro-1H-pyrido[4,3-b]indole-8-carboxamide]
EC50: 10 to 50 µM

CC(C)(C)OC(=O)N1CCC(NC(=O)c2ccc3[nH]c4c(c3c2)CN(Cc2ccc(C(N)=O)cc2)CC4)CC1 [2-43, tert-butyl 4-(2-(4-carbamoylbenzyl)-2,3,4,5-tetrahydro-1H-pyrido[4,3-b]indole-8-carboxamido) piperidine-1-carboxylate]
EC50: > 100 µM

N#Cc1ccc(CN2CCC(NC(=O)c3ccc4[nH]c5c(c4c3)CN(Cc3ccc(C(N)=O)cc3)CC5)CC2)cc1 [2-44, 2-(4-carbamoylbenzyl)-N-(1-(4-cyanobenzyl)piperidin-4-yl)-2,3,4,5-tetrahydro-1H-pyrido [4,3-b]indole-8-carboxamide]
EC50: 10 to 50 µM

NC(=O)c1ccc(CN2CCc3[nH]c4ccc(C(=O)NC5CCN(Cc6ccncc6)CC5)cc4c3C2)cc1 [2-45, 2-(4-carbamoylbenzyl)-N-(1-(pyridin-4-ylmethyl)piperidin-4-yl)-2,3,4,5-tetrahydro-1H-pyrido [4,3-b]indole-8-carboxamide]
EC50: > 100 µM

NC(=O)c1ccc(CN2CCc3[nH]c4ccc(C(=O)NC5CCN(C(=O)c6ccncc6)CC5)cc4c3C2)cc1 [2-46, 2-(4-carbamoylbenzyl)-N-(1-isonicotinoylpiperidin-4-yl)-2,3,4,5-tetrahydro-1H-pyrido [4,3-b]indole-8-carboxamide]
EC50: > 100 µM

NC(=O)c1ccc(CN2CCc3[nH]c4ccc(C(=O)NC5CCN(Cc6ccc(C(F)(F)F)cc6)CC5)cc4c3C2)cc1 [2-47, 2-(4-carbamoylbenzyl)-N-(1-(4-(trifluoromethyl)benzyl)piperidin-4-yl)-2,3,4,5-tetrahydro-1H-pyrido[4,3-b]indole-8-carboxamide]
EC50: 10 to 50 µM

NC(=O)c1ccc(CN2CCc3[nH]c4ccc(C(=O)NC5CCN(Cc6ccc(F)cc6)CC5)cc4c3C2)cc1 [2-48, 2-(4-carbamoylbenzyl)-N-(1-(4-fluorobenzyl)piperidin-4-yl)-2,3,4,5-tetrahydro-1H-pyrido [4,3-b]indole-8-carboxamide]
EC50: > 100 µM

NC(=O)c1ccc(CN2CCC(NC(=O)c3ccc4[nH]c5c(c4c3)CN(Cc3ccc(C(N)=O)cc3)CC5)CC2)cc1 [2-49, 2-(4-carbamoylbenzyl)-N-(1-(4-carbamoylbenzyl)piperidin-4-yl)-2,3,4,5-tetrahydro-1H-pyrido [4,3-b]indole-8-carboxamide]
EC50: > 100 µM

O=C(NC1CCN(Cc2ccncc2)CC1)c1ccc2[nH]c3c(c2c1)CN(Cc1ccc(C(F)(F)F)cc1)CC3 [2-50, N-(1-(pyridin-4-ylmethyl)piperidin-4-yl)-2-(4-(trifluoromethyl)benzyl)-2,3,4,5-tetrahydro-1H-pyrido[4,3-b]indole-8-carboxamide]
EC50: < 0.5 µM

O=C(NC1CCN(C(=O)c2ccncc2)CC1)c1ccc2[nH]c3c(c2c1)CN(Cc1ccc(C(F)(F)F)cc1)CC3 [2-51, N-(1-isonicotinoyl-piperidin-4-yl)-2-(4-(trifluoromethyl)benzyl)-2,3,4,5-tetrahydro-1H-pyrido [4,3-b]indole-8-carboxamide]
EC50: 0.5 to 1 µM

NC(=O)c1ccc(CN2CCC(NC(=O)c3ccc4[nH]c5c(c4c3)CN(Cc3ccc(C(F)(F)F)cc3)CC5)CC2)cc1 [2-52, N-(1-(4-carbamoyl-benzyl)piperidin-4-yl)-2-(4-(trifluoromethyl)benzyl)-2,3,4,5-tetrahydro-1H-pyrido [4,3-b]indole-8-carboxamide]
EC50: 1 to 5 µM
